Experimental data as given in patent publication US10695275B2, “Anti-aging composition” (NEOPHARM CO., LTD., priority 2016, dated 2020).

Experiments:
Assay type in all cases: cell-based
[1] = test system: human-derived fibroblasts; assay: toxicity / cell proliferation in human-derived fibroblasts; conditions: concentration of 20 uM
human fibroblasts = assay: type-1 collagen synthesis in human fibroblasts (PICP EIA kit); conditions: 24 hours
Protocol: N-(2-hydroxyethyl)octanamide was added to a culture medium of human fibroblasts (DMEM medium, 10% fetal bovine serum, 1% antibiotics) to confirm the effect of accelerating type-1 collagen synthesis in a cell level. The measurement of the synthesized collagen was qualified using a procollagen type I C-peptide enzyme immunoassay kit (PICP EIA kit).
The human fibroblast culture medium was used to aliquot the human-derived fibroblasts (human fibroblasts) into 6 wells at 2×10^5 cell/well. After cell adhesion was confirmed, the culture medium was treated with 2 ml of N-(2-hydroxyethyl)octanamide as an effective component (anti-aging composition) per each well, at a concentration of 20 uM. After the culture medium was cultured in an incubator under a condition of 37° C. and 5% CO2 for 24 hours, type-1 collagen which is related to a wrinkle forming factor was measured in a cell extract. Here, the concentration of the anti-aging composition is within a range being not toxic and not deriving cell proliferation, when treating human-derived fibroblasts. […]
The effect of accelerating type-1 collagen synthesis was confirmed in the same manner as in Example 1, except that the effective component was not used (a negative control). In addition, type-1 collagen synthesis ability relative to the negative control was calculated as a ratio, and represented by a rate of increase. […]

[2] = test system: Artificial skin (EpiDermFT); assay: collagen fiber staining (Masson's Trichrome) in artificial skin; conditions: 0.1%, 100 μl applied on the surface, 24 hours
Description: When photo-aging of the skin proceeds by ultraviolet rays, a collagen fiber network in an epidermis-dermis junction is damaged. Thus, the amount and form of collagen fiber is used as an indicator of skin photo-aging. The skin tissue of a hairless mouse which was irradiated with ultraviolet rays after N-(2-hydroxyethyl)octanamide was applied, was stained with Masson's Trichrome, observed using an optical microscope (IX71, Olympus, JPN), and then photographed using a digital camera (DP71, Olympus, JPN).
Artificial skin (EpiDermFT™ from MatTek, Ashland, USA) was purchased, and stabilized in an exclusive medium (EFT-400) for 18 hours. On the surface of the artificial skin, 100 μl of N-(2-hydroxyethyl)octanamide as an effective component (anti-aging composition) at a concentration of 0.1% was applied. After 24 hours, the artificial skin tissue was immobilized with 10% formaldehyde, and embedded with paraffin, and a tissue sliced at 5 μm was stained with Masson's Trichrome (M&T), thereby observing a staining degree of collagen fiber. The results were illustrated in the following FIG. 2.

CCCCCCCC(=O)NCCO [Example 1, N-(2-hydroxyethyl)octanamide]
toxicity to human-derived fibroblasts [1]: not toxic | Rate of increase (%) of type-1 collagen synthesis relative to negative control (human fibroblasts; 20 uM, ratio to Comparative Example 1 (non-treated)): 750% | type-1 collagen concentration (20 uM) (human fibroblasts; human fibroblasts treated at 20 uM, measured in cell extract): 0.015 | staining degree of collagen fiber (aniline blue) in the dermal layer under the epidermis [2]: strongly stained
